Values quoted from earlier work, collected in patent US7745427B2, “CGRP receptor antagonists” (Merck Sharp & Dohme Corp., priority 2004, dated 2010).
No end group written: not given here.

Tests used:
facial blood flow [1] = conditions: marmoset; Doods et al. 2000
[2] = tested on: acute attacks of migraine; conditions: clinical trials; Olesen et al. 2004
middle meningeal artery = conditions: rats, prior administration; Williamson et al. 1997
facial blood flow [3] = conditions: rat; Escott et al. 1995

Molecule | increase in facial blood flow (facial blood flow [1]) | treating acute attacks of migraine [2] | increase in diameter of the middle meningeal artery (middle meningeal artery) | increased facial blood flow (facial blood flow [3])
NCCCC[C@H](NC(=O)[C@@H](Cc1cc(Br)c(O)c(Br)c1)NC(=O)N1CCC(N2Cc3ccccc3NC2=O)CC1)C(=O)N1CCN(c2ccncc2)CC1 [BIBN4096BS] | blocked | effective |  | 
CGRP(8-37): "a peptide CGRP antagonist" (VTHRLAGLLSRSGGVVKNNFVPTNVGSKAF; ends and bridges not checked; UniProt P06881 90-119, looked up, fragment) |  |  | blocked | inhibited
